Measurements reported in US20090318451A1, “[…] AGONISTS FOR THE TREATMENT OF PAIN” (Pfizer Inc., priority 2007, published 2009).
Like-named read-outs stand apart in the source and are kept apart here.

Columns and labels:
[1] = biological target: T1, human Dopamine D3 receptor (Homo sapiens, UniProt P35462); assay: Inhibition via dopamine D3 receptors of forskolin-stimulated adenylate cyclase activity (cAMP, hD3CHO cells); type: cell-based; conditions: for functional selectivity for D3 over D2: D2 EC50 divided by D3 EC50, 10000 used where D2 EC50 >10000
T1 construct: expressed in transfected cells; host or cells: CHO (dihydrofolate reductase deficient), generated in house

[2] = biological target: T2, human dopamine D2long receptor (Homo sapiens, UniProt P14416); assay: Inhibition via dopamine D2 receptors of forskolin-stimulated adenylate cyclase activity (cAMP, GH4C1/hD2L cells); type: cell-based
T2 construct: expressed in transfected cells; host or cells: GH4C1 rat pituitary cells

D4 dopamine receptor [3] = biological target: T3, D4 dopamine receptor (Homo sapiens, UniProt P21917); assay: Functional inhibition of forskolin-stimulated cAMP accumulation in human recombinant cell lines, D4; type: cell-based
T3 construct: expressed in transfected cells
T3 sequence (P21917 1-419): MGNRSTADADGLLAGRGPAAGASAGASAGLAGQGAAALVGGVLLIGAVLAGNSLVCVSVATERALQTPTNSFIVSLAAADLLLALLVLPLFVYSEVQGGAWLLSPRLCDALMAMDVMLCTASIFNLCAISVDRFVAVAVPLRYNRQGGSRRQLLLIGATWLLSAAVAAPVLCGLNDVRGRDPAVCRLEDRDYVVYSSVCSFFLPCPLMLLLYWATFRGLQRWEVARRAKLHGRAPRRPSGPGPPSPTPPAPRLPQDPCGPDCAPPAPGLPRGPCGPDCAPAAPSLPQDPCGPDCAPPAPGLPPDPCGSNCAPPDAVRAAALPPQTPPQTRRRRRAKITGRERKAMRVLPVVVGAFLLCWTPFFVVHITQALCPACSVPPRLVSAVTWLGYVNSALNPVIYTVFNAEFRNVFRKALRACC

D3 dopamine receptor = D3 dopamine receptor (Homo sapiens, UniProt P35462); assay: In vitro binding (membrane preparation), human recombinant receptors, D3
D1 = D1 (Homo sapiens, UniProt P21728); assay: In vitro binding (membrane preparation), human recombinant receptors, D1
D2 dopamine receptor = D2 dopamine receptor (Homo sapiens, UniProt P14416); assay: In vitro binding (membrane preparation), human recombinant receptors, D2
D4 dopamine receptor [4] = biological target: T3, D4 dopamine receptor; assay: In vitro binding (membrane preparation), human recombinant receptors, D4
D5 = D5 (Homo sapiens, UniProt P21918); assay: In vitro binding (membrane preparation), human recombinant receptors, D5
[5] = system: MIA-induced static allodynia (rats); assay: Monosodium iodoacetate (MIA)-induced static allodynia; type: in vivo, rat
[6] = system: MIA-induced weight deficit (rats); assay: MIA-induced weight-bearing deficit; type: in vivo, rat
[7] = system: Plantar surgery-induced static and dynamic allodynia (rats); assay: Plantar surgery model of postsurgical pain, static and dynamic allodynia; type: in vivo, rat
[8] = system: Capsaicin-induced hyperalgesia; assay: Capsaicin-induced hyperalgesia, static and dynamic allodynia endpoint; type: in vivo, rat
[9] = system: Hotplate paw withdrawal latency (rats); assay: Hotplate paw withdrawal latency; type: in vivo, rat
[10] = system: CCI-induced static and dynamic allodynia (rats); assay: Chronic constriction injury (CCI) of sciatic nerve, static and dynamic allodynia; type: in vivo, rat
[11] = Free plasma concentration after oral dosing in pain model rats; conditions: for peak free-plasma concentration / predicted free-plasma exposure: based on the known PK profile, 0.1 mg/kg

T1 sequence (P35462 whole entry): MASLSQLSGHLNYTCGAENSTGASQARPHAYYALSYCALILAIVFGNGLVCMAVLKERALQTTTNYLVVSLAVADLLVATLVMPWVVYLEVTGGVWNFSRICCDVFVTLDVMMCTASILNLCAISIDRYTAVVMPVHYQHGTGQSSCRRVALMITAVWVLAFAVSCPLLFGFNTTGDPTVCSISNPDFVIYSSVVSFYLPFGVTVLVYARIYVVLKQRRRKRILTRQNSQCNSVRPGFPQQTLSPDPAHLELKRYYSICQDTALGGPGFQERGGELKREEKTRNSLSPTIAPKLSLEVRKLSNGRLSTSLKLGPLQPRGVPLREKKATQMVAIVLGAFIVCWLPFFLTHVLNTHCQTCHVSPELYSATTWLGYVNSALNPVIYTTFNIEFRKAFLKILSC
Sequence of D3 dopamine receptor (P35462 whole entry): as above
T2 sequence (P14416 whole entry): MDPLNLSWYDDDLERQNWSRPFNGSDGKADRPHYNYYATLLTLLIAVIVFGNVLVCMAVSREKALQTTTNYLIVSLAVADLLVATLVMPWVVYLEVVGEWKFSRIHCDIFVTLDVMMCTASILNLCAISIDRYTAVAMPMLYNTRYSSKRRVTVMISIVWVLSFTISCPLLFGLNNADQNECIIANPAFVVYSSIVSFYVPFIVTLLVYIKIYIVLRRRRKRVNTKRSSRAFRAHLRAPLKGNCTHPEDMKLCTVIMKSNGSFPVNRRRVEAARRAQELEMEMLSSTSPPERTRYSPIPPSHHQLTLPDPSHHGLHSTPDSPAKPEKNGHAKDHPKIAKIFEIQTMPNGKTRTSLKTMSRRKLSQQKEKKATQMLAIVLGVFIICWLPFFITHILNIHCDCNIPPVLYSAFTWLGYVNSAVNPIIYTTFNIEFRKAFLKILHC
Sequence of D1 (P21728 whole entry): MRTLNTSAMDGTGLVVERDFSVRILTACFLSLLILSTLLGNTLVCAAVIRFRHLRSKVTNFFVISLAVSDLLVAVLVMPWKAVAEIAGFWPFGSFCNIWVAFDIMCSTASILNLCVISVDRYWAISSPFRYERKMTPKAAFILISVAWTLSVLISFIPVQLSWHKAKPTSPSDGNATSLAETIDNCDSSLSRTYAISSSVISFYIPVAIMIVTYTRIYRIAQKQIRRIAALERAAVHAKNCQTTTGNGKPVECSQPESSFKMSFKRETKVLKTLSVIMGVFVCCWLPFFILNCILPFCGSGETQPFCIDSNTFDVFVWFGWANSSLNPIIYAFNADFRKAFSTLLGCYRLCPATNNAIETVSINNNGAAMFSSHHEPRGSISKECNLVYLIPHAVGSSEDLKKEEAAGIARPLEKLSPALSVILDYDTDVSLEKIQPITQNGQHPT
Sequence of D2 dopamine receptor (P14416 whole entry): as the sequence (P14416 whole entry) above
Sequence of D5 (P21918 whole entry): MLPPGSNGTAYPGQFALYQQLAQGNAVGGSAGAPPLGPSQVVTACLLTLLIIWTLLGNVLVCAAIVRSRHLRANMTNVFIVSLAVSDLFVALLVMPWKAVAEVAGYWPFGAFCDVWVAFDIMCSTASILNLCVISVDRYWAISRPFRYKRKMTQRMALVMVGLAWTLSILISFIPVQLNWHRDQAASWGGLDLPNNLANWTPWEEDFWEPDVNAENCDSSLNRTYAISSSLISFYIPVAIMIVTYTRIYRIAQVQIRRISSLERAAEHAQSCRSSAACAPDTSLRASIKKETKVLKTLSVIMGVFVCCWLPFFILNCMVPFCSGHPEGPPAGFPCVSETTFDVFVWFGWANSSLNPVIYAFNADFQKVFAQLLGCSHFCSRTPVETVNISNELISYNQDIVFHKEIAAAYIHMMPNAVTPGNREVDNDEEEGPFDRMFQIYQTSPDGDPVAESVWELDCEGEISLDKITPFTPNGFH

## CCCN1CCO[C@H](c2cccc(O)c2)C1.Cl [Example 8, R-(−)-3-(4-Propylmorpholin-2-yl)phenol hydrochloride]
[1]
  EC50: 0.0076 µM
  functional selectivity for D3 over D2: 1315.8 fold

## CCCN1C[C@@H](c2ccc(N)nc2)OC[C@@H]1C [Example 67, 5-[(2R,5S)-5-methyl-4-propylmorpholin-2-yl]pyridin-2-amine]
[1]
  functional selectivity for D3 over D2: > 470 fold
[1]; D3, CHO cells, full agonist, normalised to pramipexole, read-out: % Emax
  Emax: 95%
[1]; D3 versus D4, cAMP
  functional selectivity over D4 dopamine receptor: 180 fold
[1]; forskolin-stimulated cAMP accumulation, (95% CI), read-out: % Emax, D3
  Emax: 95%
[2]
  EC50: > 10 µM
[2]; 10 μM, response as percentage of the effect to pramipexole, (95% CI)
  % Response @ 10 μM, D2: % Response @ 10 μM = 36 (19-56)
D4 dopamine receptor [3]
  EC50: 3.9 µM
D4 dopamine receptor [3]; forskolin-stimulated cAMP accumulation, (95% CI)
  Emax: 92%
D3 dopamine receptor
  Ki: 0.215 µM
D3 dopamine receptor; D3 versus D2 binding
  binding selectivity over D2 dopamine receptor: > 46 fold
D1
  IC50: > 10 µM
D2 dopamine receptor
  IC50: > 10 µM
D4 dopamine receptor [4]
  Ki: 4.16 µM
D5
  IC50: > 10 µM
[5]; oral
  Minimum Effective Dose, MIA-induced static allodynia: 0.01 mg/kg
[5]; oral 0.1 mg/kg
  reversal of MIA-induced static allodynia: full reversal
[5]; oral 0.01, 0.03 and 0.1 mg/kg
  reversal of MIA-induced static allodynia: dose response in reversal of the allodynia
[6]; oral, single-dose study
  Minimum Effective Dose, MIA-induced weight deficit: 0.1 mg/kg oral single-dose study
[6]; single dose 0.1 mg/kg
  efficacy on weight-bearing deficit following MIA injection: efficacy similar to optimal opioid treatment
[7]
  oral dose giving maximal effect on surgery-induced allodynia: 0.1 mg/kg
[7]; oral
  reversal of surgery-induced static and dynamic allodynia: dose-dependent reversal
[8]; oral
  Minimum Effective Dose, capsaicin-induced hyperalgesia: 0.01 mg/kg oral
[8]; rat, oral pre-dosing
  dose giving optimal effect in capsaicin model: 1 mg/kg
[8]; rat, oral pre-dosing 0.01, 0.1 and 1 mg/kg, capsaicin 1 hour after dosing
  effect on capsaicin-induced static and dynamic allodynia: dose response
[9]; rat, oral 0.01, 0.03, 0.1 and 1.0 mg/kg, hotplate 52° C.
  efficacy in hotplate model (paw withdrawal latency): no efficacy
[9]; rats, oral
  Minimum Effective Dose, hotplate paw withdrawal latency: No effect up to 1.0 mg/kg oral
[10]; oral
  Minimum Effective Dose, CCI-induced static and dynamic allodynia: No effect up to 0.1 mg/kg oral
[10]; oral 0.1 mg/kg
  effect on CCI-induced static and dynamic allodynia: no effects
[11]; oral 0.1 mg/kg
  peak free-plasma concentration / predicted free-plasma exposure: 10 nM
[11]; oral 0.1 mg/kg, listed as 5-[(2R,5S)-5-methyl-4-propylmorpholin-2-yl]pyridin-2-amine
  peak free-plasma concentration / predicted free-plasma exposure: approximately 10 nM
[11]; rats, 0.01 mg/kg oral
  measured mean free Cmax for MED, MIA-induced static allodynia: 1.85 nM
[11]; rats, oral 0.01 mg/kg
  free plasma concentration: 1.85 nM
[11]; rats, oral 0.03 mg/kg
  free plasma concentration: 5.70 nM
[11]; rats, oral 0.1 mg/kg
  free plasma concentration: 10.77 nM

## CC(C)C[C@H](CN)CC(=O)O [pregabalin, reference compound]
[8]; rat, 30 mg/kg
  effect in capsaicin model, positive control compared with Example 67 at 1 mg/kg: equivalent in magnitude

## N#Cc1ccc2c(c1)CCN(CCC1CCC(NC(=O)c3ccnc4ccccc34)CC1)C2 (stereo not drawn) [quinoline-4-carboxylic acid (4-[2-(6-cyano-3,4-dihydro-1H-isoquinolin-2-yl)ethyl]cyclohexyl)-amide, reference compound]
[5]; antagonist oral 3 mg/kg
  effect of 0.1 mg/kg of the compound of Example 67 on MIA allodynia after D3 antagonist: abolished

## COc1cccc(C2(O)CCCCC2CN(C)C)c1 (stereo not drawn) [tramadol, reference compound]
[5]; 100 mg/kg
  reversal of MIA-induced static allodynia, positive control: full reversal
